Measurements taken from the kinase profiling compilation of Christmann-Franck et al. (2016).

What was measured:
Assay in all cases: KINOMEscan competition binding
Details in all cases: compound 10.0 µM
AAK1 (human) = AAK1 (human) (UniProt Q2M2I8)
ABL2 (human) = ABL2 (human) (UniProt P42684)
ACVR1 (human) = ACVR1 (human) (UniProt Q04771)
ADCK4 (human) = ADCK4 (human) (UniProt Q96D53)
AXL (human) = AXL (human) (UniProt P30530)
CAMK1G (human) = CAMK1G (human) (UniProt Q96NX5)
EPHA7 (human) = EPHA7 (human) (UniProt Q15375)
EPHB4 (human) = EPHB4 (human) (UniProt P54760)
FGFR4 (human) = FGFR4 (human) (UniProt P22455)
[1] = test system: FLT3 (human), P36888 [ITD]
HCK (human) = HCK (human) (UniProt P08631)
IGF1R (human) = IGF1R (human) (UniProt P08069)
IKBKB (human) = IKBKB (human) (UniProt O14920)
ITK (human) = ITK (human) (UniProt Q08881)
[2] = biological target: JAK1 JH2 pseudokinase (human) (UniProt P23458)
LIMK1 (human) = LIMK1 (human) (UniProt P53667)
MARK4 (human) = MARK4 (human) (UniProt Q96L34)
MYO3A (human) = MYO3A (human) (UniProt Q8NEV4)
NEK1 (human) = NEK1 (human) (UniProt Q96PY6)
PDPK1 (human) = PDPK1 (human) (UniProt O15530)
PKMYT1 (human) = PKMYT1 (human) (UniProt Q99640)
PKN1 (human) = PKN1 (human) (UniProt Q16512)
PKN2 (human) = PKN2 (human) (UniProt Q16513)
PLK4 (human) = PLK4 (human) (UniProt O00444)
PRKCD (human) = PRKCD (human) (UniProt Q05655)
PRKD3 (human) = PRKD3 (human) (UniProt O94806)
PTK2 (human) = PTK2 (human) (UniProt Q05397)
RIOK3 (human) = RIOK3 (human) (UniProt O14730)
RPS6KA2 KD2 (human) = RPS6KA2 KD2 (human) (UniProt Q15349)
RPS6KA4 KD1 (human) = RPS6KA4 KD1 (human) (UniProt O75676)
SRPK3 (human) = SRPK3 (human) (UniProt Q9UPE1)
STK25 (human) = STK25 (human) (UniProt O00506)
STK3 (human) = STK3 (human) (UniProt Q13188)
STK32C (human) = STK32C (human) (UniProt Q86UX6)
TEC (human) = TEC (human) (UniProt P42680)
TGFBR1 (human) = TGFBR1 (human) (UniProt P36897)
TNK1 (human) = TNK1 (human) (UniProt Q13470)
ULK2 (human) = ULK2 (human) (UniProt Q8IYT8)
WEE2 (human) = WEE2 (human) (UniProt P0C1S8)
ZAP70 (human) = ZAP70 (human) (UniProt P43403)

PKN2 (human), sequence (Q16513 whole entry, looked up): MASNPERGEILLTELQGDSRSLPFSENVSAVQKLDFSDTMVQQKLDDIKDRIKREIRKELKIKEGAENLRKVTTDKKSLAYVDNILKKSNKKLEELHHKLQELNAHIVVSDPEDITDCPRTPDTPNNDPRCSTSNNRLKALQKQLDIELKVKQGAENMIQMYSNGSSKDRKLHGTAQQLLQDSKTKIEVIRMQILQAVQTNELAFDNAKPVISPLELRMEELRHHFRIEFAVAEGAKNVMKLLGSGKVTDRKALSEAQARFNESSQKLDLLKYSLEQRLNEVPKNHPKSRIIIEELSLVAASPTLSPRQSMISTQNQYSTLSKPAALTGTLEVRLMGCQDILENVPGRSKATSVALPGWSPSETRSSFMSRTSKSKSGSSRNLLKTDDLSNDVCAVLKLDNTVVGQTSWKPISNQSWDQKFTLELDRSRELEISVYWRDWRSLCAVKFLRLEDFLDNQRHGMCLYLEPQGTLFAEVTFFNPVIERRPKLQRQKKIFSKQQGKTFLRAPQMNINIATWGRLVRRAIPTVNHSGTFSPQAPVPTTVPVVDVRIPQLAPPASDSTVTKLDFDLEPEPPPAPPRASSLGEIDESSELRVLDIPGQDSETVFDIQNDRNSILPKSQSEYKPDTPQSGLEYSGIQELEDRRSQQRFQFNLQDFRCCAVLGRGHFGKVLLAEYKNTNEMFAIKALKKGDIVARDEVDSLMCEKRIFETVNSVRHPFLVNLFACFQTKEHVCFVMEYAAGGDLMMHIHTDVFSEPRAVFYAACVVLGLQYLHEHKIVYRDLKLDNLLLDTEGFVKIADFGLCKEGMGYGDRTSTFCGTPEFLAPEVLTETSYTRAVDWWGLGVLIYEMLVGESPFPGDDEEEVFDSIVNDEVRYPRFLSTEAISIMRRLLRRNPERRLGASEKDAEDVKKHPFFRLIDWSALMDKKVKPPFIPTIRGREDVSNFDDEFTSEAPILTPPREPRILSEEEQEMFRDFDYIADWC
STK25 (human), sequence (O00506 whole entry, looked up): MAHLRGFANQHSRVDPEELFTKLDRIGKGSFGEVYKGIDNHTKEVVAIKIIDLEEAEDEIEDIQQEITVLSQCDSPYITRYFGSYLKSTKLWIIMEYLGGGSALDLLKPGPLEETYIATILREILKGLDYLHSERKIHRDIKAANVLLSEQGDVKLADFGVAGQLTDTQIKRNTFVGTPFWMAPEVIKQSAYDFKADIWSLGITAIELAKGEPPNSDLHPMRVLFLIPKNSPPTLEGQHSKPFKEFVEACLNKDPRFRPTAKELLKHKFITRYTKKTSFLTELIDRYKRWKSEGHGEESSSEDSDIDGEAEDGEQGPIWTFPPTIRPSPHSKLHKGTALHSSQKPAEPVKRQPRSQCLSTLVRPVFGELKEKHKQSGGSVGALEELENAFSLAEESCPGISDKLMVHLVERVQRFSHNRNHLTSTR
STK3 (human), sequence (Q13188 whole entry, looked up): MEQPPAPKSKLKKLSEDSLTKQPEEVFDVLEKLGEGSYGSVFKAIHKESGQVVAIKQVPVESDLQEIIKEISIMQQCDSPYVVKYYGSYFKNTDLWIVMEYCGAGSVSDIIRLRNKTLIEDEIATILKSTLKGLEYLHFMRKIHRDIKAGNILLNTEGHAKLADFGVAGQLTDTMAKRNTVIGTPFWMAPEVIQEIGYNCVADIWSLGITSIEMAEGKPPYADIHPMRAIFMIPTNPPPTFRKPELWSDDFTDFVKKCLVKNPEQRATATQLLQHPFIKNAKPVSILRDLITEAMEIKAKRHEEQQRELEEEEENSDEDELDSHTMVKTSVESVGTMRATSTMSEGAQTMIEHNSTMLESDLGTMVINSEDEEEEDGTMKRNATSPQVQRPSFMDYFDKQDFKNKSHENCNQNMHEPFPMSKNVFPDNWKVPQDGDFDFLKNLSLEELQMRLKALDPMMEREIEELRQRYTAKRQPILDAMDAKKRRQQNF
AAK1 (human), sequence (Q2M2I8 whole entry, looked up): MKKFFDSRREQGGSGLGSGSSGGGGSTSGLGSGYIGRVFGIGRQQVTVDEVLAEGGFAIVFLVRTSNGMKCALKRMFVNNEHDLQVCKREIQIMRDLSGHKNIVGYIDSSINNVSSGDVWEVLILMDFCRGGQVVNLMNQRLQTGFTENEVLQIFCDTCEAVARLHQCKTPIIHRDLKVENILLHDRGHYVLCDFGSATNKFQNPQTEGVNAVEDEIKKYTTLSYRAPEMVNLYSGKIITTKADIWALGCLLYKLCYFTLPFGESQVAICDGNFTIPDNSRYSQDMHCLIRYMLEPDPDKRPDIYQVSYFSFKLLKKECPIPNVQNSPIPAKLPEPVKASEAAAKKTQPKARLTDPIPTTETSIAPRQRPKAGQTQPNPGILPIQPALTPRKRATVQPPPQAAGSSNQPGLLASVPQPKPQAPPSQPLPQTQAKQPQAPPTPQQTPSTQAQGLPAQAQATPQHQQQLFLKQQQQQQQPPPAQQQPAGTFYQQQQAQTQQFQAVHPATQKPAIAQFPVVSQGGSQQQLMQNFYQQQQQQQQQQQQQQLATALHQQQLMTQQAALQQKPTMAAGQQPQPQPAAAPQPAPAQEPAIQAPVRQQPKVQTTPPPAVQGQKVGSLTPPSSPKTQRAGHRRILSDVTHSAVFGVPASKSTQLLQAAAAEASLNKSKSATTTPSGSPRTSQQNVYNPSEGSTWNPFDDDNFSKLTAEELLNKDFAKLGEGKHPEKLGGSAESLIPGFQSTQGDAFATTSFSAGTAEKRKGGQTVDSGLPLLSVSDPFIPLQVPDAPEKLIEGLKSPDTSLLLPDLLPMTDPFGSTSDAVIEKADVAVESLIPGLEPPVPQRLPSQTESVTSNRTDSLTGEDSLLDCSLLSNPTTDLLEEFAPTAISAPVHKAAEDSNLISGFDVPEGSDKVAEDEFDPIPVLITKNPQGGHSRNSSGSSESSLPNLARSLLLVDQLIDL
NEK1 (human), sequence (Q96PY6 whole entry, looked up): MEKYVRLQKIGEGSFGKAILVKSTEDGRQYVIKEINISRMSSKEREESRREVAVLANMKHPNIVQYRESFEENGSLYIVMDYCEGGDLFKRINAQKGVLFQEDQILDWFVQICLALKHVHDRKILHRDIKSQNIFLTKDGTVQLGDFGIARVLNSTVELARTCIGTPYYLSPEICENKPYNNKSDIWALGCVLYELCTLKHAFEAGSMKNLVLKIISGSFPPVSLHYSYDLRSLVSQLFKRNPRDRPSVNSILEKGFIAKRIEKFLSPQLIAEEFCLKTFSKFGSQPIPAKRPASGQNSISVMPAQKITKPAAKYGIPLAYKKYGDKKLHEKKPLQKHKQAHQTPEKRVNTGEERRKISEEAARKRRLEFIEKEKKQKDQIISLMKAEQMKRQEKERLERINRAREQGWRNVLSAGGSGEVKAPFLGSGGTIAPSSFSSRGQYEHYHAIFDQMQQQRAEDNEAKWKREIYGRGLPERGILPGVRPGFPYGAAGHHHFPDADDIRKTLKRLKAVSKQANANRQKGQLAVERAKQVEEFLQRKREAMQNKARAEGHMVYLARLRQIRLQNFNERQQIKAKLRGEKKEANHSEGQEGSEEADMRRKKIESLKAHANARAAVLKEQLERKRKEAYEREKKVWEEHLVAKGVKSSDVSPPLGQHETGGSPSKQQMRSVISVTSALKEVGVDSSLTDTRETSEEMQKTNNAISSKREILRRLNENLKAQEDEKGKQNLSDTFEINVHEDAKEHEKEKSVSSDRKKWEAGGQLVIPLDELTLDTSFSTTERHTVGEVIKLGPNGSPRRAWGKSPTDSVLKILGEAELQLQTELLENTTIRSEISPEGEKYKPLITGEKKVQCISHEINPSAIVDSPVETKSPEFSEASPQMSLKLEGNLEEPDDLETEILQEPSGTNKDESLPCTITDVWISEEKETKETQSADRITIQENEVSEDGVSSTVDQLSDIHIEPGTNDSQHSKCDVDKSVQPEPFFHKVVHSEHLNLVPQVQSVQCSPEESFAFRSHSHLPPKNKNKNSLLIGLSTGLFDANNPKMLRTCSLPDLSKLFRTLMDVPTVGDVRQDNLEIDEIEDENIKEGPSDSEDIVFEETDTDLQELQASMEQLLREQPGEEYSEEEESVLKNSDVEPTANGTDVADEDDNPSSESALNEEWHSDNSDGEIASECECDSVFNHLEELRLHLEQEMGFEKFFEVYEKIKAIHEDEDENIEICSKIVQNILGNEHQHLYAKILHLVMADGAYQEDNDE
RPS6KA2 KD2 (human), sequence (Q15349 whole entry, looked up): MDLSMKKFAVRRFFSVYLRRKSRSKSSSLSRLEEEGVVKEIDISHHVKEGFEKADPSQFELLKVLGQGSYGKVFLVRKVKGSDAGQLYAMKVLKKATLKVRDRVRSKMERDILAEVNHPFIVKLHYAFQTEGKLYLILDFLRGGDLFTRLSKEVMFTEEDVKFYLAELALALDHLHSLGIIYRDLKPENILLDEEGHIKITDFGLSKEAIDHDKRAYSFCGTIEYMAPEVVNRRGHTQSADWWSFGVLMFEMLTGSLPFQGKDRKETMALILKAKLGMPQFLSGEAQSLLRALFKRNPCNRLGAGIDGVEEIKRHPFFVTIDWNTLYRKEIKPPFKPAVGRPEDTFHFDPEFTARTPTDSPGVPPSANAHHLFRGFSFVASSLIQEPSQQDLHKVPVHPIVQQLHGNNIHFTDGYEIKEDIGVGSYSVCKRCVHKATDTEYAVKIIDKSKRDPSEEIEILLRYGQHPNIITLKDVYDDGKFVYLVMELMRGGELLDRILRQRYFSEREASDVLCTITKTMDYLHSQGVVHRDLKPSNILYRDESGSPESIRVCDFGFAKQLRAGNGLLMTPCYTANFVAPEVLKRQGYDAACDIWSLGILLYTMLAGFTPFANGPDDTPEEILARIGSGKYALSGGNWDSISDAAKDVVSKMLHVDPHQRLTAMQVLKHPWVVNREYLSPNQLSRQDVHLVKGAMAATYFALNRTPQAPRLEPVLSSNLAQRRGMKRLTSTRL

SMILES	kinase still bound, per cent of control (AAK1 (human))	kinase still bound, per cent of control (ABL2 (human))	kinase still bound, per cent of control (ACVR1 (human))	kinase still bound, per cent of control (ADCK4 (human))	kinase still bound, per cent of control (AXL (human))	kinase still bound, per cent of control (CAMK1G (human))	kinase still bound, per cent of control (EPHA7 (human))	kinase still bound, per cent of control (EPHB4 (human))	kinase still bound, per cent of control (FGFR4 (human))	kinase still bound, per cent of control [1]	kinase still bound, per cent of control (HCK (human))	kinase still bound, per cent of control (IGF1R (human))	kinase still bound, per cent of control (IKBKB (human))	kinase still bound, per cent of control (ITK (human))	kinase still bound, per cent of control [2]	kinase still bound, per cent of control (LIMK1 (human))	kinase still bound, per cent of control (MARK4 (human))	kinase still bound, per cent of control (MYO3A (human))	kinase still bound, per cent of control (NEK1 (human))	kinase still bound, per cent of control (PDPK1 (human))	also measured
CCN1CCN(Cc2ccc(Nc3ncc4c(n3)N(C)c3ccccc3C(=O)N4C)cc2C(F)(F)F)CC1	36%	3%	52%	57%	11%	61%	100%	93%	36%	19%	24%	100%	100%	100%	0.1%	52%	19%	88%	66%	100%	kinase still bound, per cent of control (PKMYT1 (human)): 100%; kinase still bound, per cent of control (PKN1 (human)): 76%; kinase still bound, per cent of control (PKN2 (human)): 55%; kinase still bound, per cent of control (PLK4 (human)): 0.1%; kinase still bound, per cent of control (PRKCD (human)): 100%; kinase still bound, per cent of control (PRKD3 (human)): 8%; kinase still bound, per cent of control (PTK2 (human)): 57%; kinase still bound, per cent of control (RIOK3 (human)): 38%; kinase still bound, per cent of control (RPS6KA2 KD2 (human)): 32%; kinase still bound, per cent of control (RPS6KA4 KD1 (human)): 100%; kinase still bound, per cent of control (SRPK3 (human)): 57%; kinase still bound, per cent of control (STK25 (human)): 47%; kinase still bound, per cent of control (STK3 (human)): 8.1%; kinase still bound, per cent of control (STK32C (human)): 100%; kinase still bound, per cent of control (TEC (human)): 99%; kinase still bound, per cent of control (TGFBR1 (human)): 81%; kinase still bound, per cent of control (TNK1 (human)): 0.3%; kinase still bound, per cent of control (ULK2 (human)): 0%; kinase still bound, per cent of control (WEE2 (human)): 64%; kinase still bound, per cent of control (ZAP70 (human)): 90%
C=CC(=O)Nc1cccc(Oc2nc(Nc3ccc(N4CCN(C)CC4)cc3OC)ncc2Cl)c1	7%	100%	100%	100%	100%	100%	100%	100%	100%	0.85%	100%	7.4%	100%	0.55%	100%	100%	16%	28%	100%	100%	kinase still bound, per cent of control (PKMYT1 (human)): 100%; kinase still bound, per cent of control (PKN1 (human)): 100%; kinase still bound, per cent of control (PKN2 (human)): 100%; kinase still bound, per cent of control (PLK4 (human)): 0.2%; kinase still bound, per cent of control (PRKCD (human)): 100%; kinase still bound, per cent of control (PRKD3 (human)): 10%; kinase still bound, per cent of control (PTK2 (human)): 0.1%; kinase still bound, per cent of control (RIOK3 (human)): 20%; kinase still bound, per cent of control (RPS6KA2 KD2 (human)): 28%; kinase still bound, per cent of control (RPS6KA4 KD1 (human)): 100%; kinase still bound, per cent of control (SRPK3 (human)): 8.4%; kinase still bound, per cent of control (STK25 (human)): 100%; kinase still bound, per cent of control (STK3 (human)): 100%; kinase still bound, per cent of control (STK32C (human)): 100%; kinase still bound, per cent of control (TEC (human)): 6.6%; kinase still bound, per cent of control (TGFBR1 (human)): 100%; kinase still bound, per cent of control (TNK1 (human)): 1.8%; kinase still bound, per cent of control (ULK2 (human)): 2%; kinase still bound, per cent of control (WEE2 (human)): 100%; kinase still bound, per cent of control (ZAP70 (human)): 100%
